Measurements from patent US11440906B2, “Biguanide derivatives and their rearrangement products for use in the treatment of cancer” (CENTRE NATIONAL DE LA RECHERCHE SCIENTIFIQUE, priority 2017, dated 2022).
Like-named read-outs stand apart in the source and are kept apart here.

Tested on: A375 Sensitive cells
Assay: Viability test, trypan blue exclusion, A375 Sensitive cells
Format: cell-based, human
Conditions: Homo sapiens, A-375, viable cells as percentage of DMSO control
In short: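 A375 (B-Raf, CDKN2A, PTEN mutant) cells were exposed to compounds at 5.0 or 10 μM for 24 or 48 hr; CRO15 also at 0.5–50 μM for 48 hr or 5 μM for 2–48 hr; DMSO control. Viable cells were counted by trypan blue exclusion, as % of control. Three experiments in triplicate.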

[1] = 24 h, read-out: Viab A375 5 μM/ 24 h
[2] = 48 h, read-out: Viab A375 5 μM/ 48 h
[3] = 24 h, read-out: Viab A375 10 μM/ 24 h
[4] = 48 h, read-out: Viab A375 10 μM/ 48 h

`Cc1ccc2nc(NC(=N)NC(=N)c3cccc(Br)c3)sc2c1` [MTF 265, 3-bromo-N—(N-(6-methylbenzo[d]thiazol-2-yl)carbamimidoyl)benzimidamide] showed a viability at 5 µM [1] of 91%, a viability at 5 µM [2] of 100% and a viability at 10 µM [3] of 84%. For the same compound, the viability at 10 µM [4] was 60%.
`Nc1nc(Nc2ccccc2O)nc(-c2cccc(Cl)c2)n1` [MTF 332, 2-((4-amino-6-(3-chlorophenyl)-1,3,5-triazin-2-yl)amino)phenol] showed a viability at 5 µM [1] of 122%, a viability at 5 µM [2] of 87.6% and a viability at 10 µM [3] of 104%. For the same compound, the viability at 10 µM [4] was 65.4%.
For `N=C(NC(=N)c1cnccn1)Nc1nc2ccccc2s1` [MTF 345, N—(N-(benzo[d]thiazol-2-yl)carbamimidoyl)pyrazine-2-carboximidamide], the viability at 5 µM [1] was 25.9%, the viability at 5 µM [2] was 1.8% and the viability at 10 µM [3] was 17.1%. The viability at 10 µM [4] was 1%.
`N=C(NC(=N)c1ccccn1)Nc1nc(-c2ccccc2)cs1` [MTF 263, N—(N-(4-phenylthiazol-2-yl)carbamimidoyl)picolinimidamide] gave a viability at 5 µM [1] of 89.5%, a viability at 5 µM [2] of 91% and a viability at 10 µM [3] of 100%. For the same compound, the viability at 10 µM [4] was 66%.
Work on `Nc1nc(Nc2ccccc2SSc2ccccc2Nc2nc(N)nc(-c3cnccn3)n2)nc(-c2cnccn2)n1` [MTF 348, N2,N2′-(disulfanediylbis(2,1-phenylene))bis(6-(pyrazin-2-yl)-1,3,5-triazine-2,4-diamine)] yielded a viability at 5 µM [1] of 102%, a viability at 5 µM [2] of 79.6% and a viability at 10 µM [3] of 110%. For the same compound, the viability at 10 µM [4] was 35.8%.
For `N=C(NC(=N)c1cccc(Br)c1)Nc1nc2ccccc2s1` [MTF 242, N—(N-(benzo[d]thiazol-2-yl)carbamimidoyl)-3-bromobenzimidamide], the viability at 5 µM [1] was 29.2%, the viability at 5 µM [2] was 8.1% and the viability at 10 µM [3] was 13.4%. It also gave a viability at 10 µM [4] of 2.9%.
In the case of `Nc1nc(Nc2ccccc2O)nc(-c2cccc(Br)c2)n1` [MTF 331, 2-((4-amino-6-(3-bromophenyl)-1,3,5-triazin-2-yl)amino)phenol], the viability at 5 µM [1] is reported as 104%, the viability at 5 µM [2] is reported as 82.9% and the viability at 10 µM [3] is reported as 151%. The viability at 10 µM [4] was 77.4%.
Compound `N=C(NC(=N)c1ccc2c(c1)OCO2)Nc1nc2ccccc2s1` [MTF 383, N—(N-(benzo[d]thiazol-2-yl)carbamimidoyl)benzo[d][1,3]dioxole-5-carboximidamide] has a viability at 5 µM [1] of 43.1%, a viability at 5 µM [2] of 40.6% and a viability at 10 µM [3] of 41.6%. The viability at 10 µM [4] was 7.1%.
Work on `N#Cc1cccc(C(=N)NC(=N)Nc2nc3ccccc3s2)c1` [MTF 347, N—(N-(benzo[d]thiazol-2-yl)carbamimidoyl)-3-cyanobenzimidamide] yielded a viability at 5 µM [1] of 26.9%, a viability at 5 µM [2] of 6.6% and a viability at 10 µM [3] of 27.6%. The viability at 10 µM [4] was 6.8%.
Compound `N=C(NC(=N)c1cccnc1)Nc1nc2ccccc2s1` [MTF 252, N—(N-(benzo[d]thiazol-2-yl)carbamimidoyl)nicotinimidamide] has a viability at 5 µM [1] of 8.6%, a viability at 5 µM [2] of 5.2% and a viability at 10 µM [3] of 12.9%. The viability at 10 µM [4] was 2.6%.
`N=C(NC(=N)c1ccccn1)Nc1nc(-c2cccc([N+](=O)[O-])c2)cs1` [MTF 259, N—(N-(4-(3-nitrophenyl)thiazol-2-yl)carbamimidoyl)picolinimidamide] was tested, and the viability at 5 µM [1] was 157%, the viability at 5 µM [2] was 95.7% and the viability at 10 µM [3] was 98%. The viability at 10 µM [4] was 96.5%.
`N=C(NC(=N)c1cccc(Cl)c1)Nc1nc(-c2cccc([N+](=O)[O-])c2)cs1` [MTF 277, 3-chloro-N—(N-(4-(3-nitrophenyl)thiazol-2-yl)carbamimidoyl)benzimidamide] gave a viability at 5 µM [1] of 77.6%, a viability at 5 µM [2] of 88% and a viability at 10 µM [3] of 76.4%. It also gave a viability at 10 µM [4] of 85.8%.
Compound `Cc1csc(NC(=N)NC(=N)c2ccccc2Cl)n1` [MTF 284, 2-chloro-N—(N-(4-methylthiazol-2-yl)carbamimidoyl)benzimidamide] has a viability at 5 µM [1] of 80.1%, a viability at 5 µM [2] of 117% and a viability at 10 µM [3] of 104%. For the same compound, the viability at 10 µM [4] was 76.9%.
Compound `Nc1nc(Nc2ccccc2SSc2ccccc2Nc2nc(N)nc(-c3cccc(Cl)c3)n2)nc(-c2cccc(Cl)c2)n1` [MTF 322, N2,N2′-(disulfanediylbis(2,1-phenylene))bis(6-(3-chlorophenyl)-1,3,5-triazine-2,4-diamine)] has a viability at 5 µM [1] of 57.4%, a viability at 5 µM [2] of 12.1% and a viability at 10 µM [3] of 26.9%. The viability at 10 µM [4] was 5.7%.
Work on `COc1ccc(C(=N)NC(=N)Nc2nc3ccccc3s2)cc1` [MTF 254, N—(N-(benzo[d]thiazol-2-yl)carbamimidoyl)-4-methoxybenzimidamide] yielded a viability at 5 µM [1] of 100%, a viability at 5 µM [2] of 100% and a viability at 10 µM [3] of 100%. For the same compound, the viability at 10 µM [4] was 100%.
For `Nc1nc(Nc2ccccc2SSc2ccccc2Nc2nc(N)nc(-c3c(Cl)cccc3Cl)n2)nc(-c2c(Cl)cccc2Cl)n1` [MTF 455, N2,N2′-(disulfanediylbis(2,1-phenylene))bis(6-(2,6-dichlorophenyl)-1,3,5-triazine-2,4-diamine)], the viability at 5 µM [1] was 89%, the viability at 5 µM [2] was 108% and the viability at 10 µM [3] was 32.3%. For the same compound, the viability at 10 µM [4] was 69.5%.
In the case of `N=C(NC(=N)c1ccc(Cl)cc1)Nc1nc(-c2cccc([N+](=O)[O-])c2)cs1` [MTF 281, 4-chloro-N—(N-(4-(3-nitrophenyl)thiazol-2-yl)carbamimidoyl)benzimidamide], the viability at 5 µM [1] is reported as 79%, the viability at 5 µM [2] is reported as 112% and the viability at 10 µM [3] is reported as 57.4%. It also gave a viability at 10 µM [4] of 78%.
For `COc1cc(C(=N)NC(=N)Nc2nc3ccccc3s2)cc(OC)c1OC` [MTF 382, N—(N-(benzo[d]thiazol-2-yl)carbamimidoyl)-3,4,5-trimethoxybenzimidamide], the viability at 5 µM [1] was 14.7%, the viability at 5 µM [2] was 1.8% and the viability at 10 µM [3] was 17.4%. For the same compound, the viability at 10 µM [4] was 4.5%.
With `N=C(NC(=N)c1ncc(Cl)cc1Cl)Nc1nc2ccccc2s1` [MTF 389, N—(N-(benzo[d]thiazol-2-yl)carbamimidoyl)-3,5-dichloropicolinimidamide] the viability at 5 µM [1] was 74.6%, the viability at 5 µM [2] was 85.6% and the viability at 10 µM [3] was 75.8%. It also gave a viability at 10 µM [4] of 76.4%.
For `Cc1ccc(C(=N)NC(=N)Nc2nc3ccccc3s2)cc1` [MTF 246, N—(N-(benzo[d]thiazol-2-yl)carbamimidoyl)-4-methylbenzimidamide], the viability at 5 µM [1] was 137%, the viability at 5 µM [2] was 91% and the viability at 10 µM [3] was 94%. The viability at 10 µM [4] was 115%.
`Nc1nc(Nc2ccccc2SSc2ccccc2Nc2nc(N)nc(-c3ccccc3[N+](=O)[O-])n2)nc(-c2ccccc2[N+](=O)[O-])n1` [MTF 463, N2,N2′-(disulfanediylbis(2,1-phenylene))bis(6-(2-nitrophenyl)-1,3,5-triazine-2,4-diamine)] was tested, and the viability at 5 µM [1] was 80%, the viability at 5 µM [2] was 74.3% and the viability at 10 µM [3] was 56.1%. It also gave a viability at 10 µM [4] of 43.4%.
Compound `Nc1nc(Nc2ccccc2SSc2ccccc2Nc2nc(N)nc(-c3ccc(Cl)cc3)n2)nc(-c2ccc(Cl)cc2)n1` [MTF 327, N2,N2′-(disulfanediylbis(2,1-phenylene))bis(6-(4-chlorophenyl)-1,3,5-triazine-2,4-diamine)] has a viability at 5 µM [1] of 19.4%, a viability at 5 µM [2] of 14.5% and a viability at 10 µM [3] of 23.7%. The viability at 10 µM [4] was 14.5%.
Compound `N=C(NC(=N)c1cccc(C(F)(F)F)c1)Nc1nc2ccccc2s1` [MTF 343, N—(N-(benzo[d]thiazol-2-yl)carbamimidoyl)-3-(trifluoromethyl)benzimidamide] has a viability at 5 µM [1] of 67.7%, a viability at 5 µM [2] of 52.9% and a viability at 10 µM [3] of 34.8%. It also gave a viability at 10 µM [4] of 24.1%.
`N=C(NC(=N)c1ccccc1)Nc1nc(-c2ccccc2)cs1` [MTF 272, N—(N-(4-phenylthiazol-2-yl)carbamimidoyl)benzimidamide] was tested, and the viability at 5 µM [1] was 100%, the viability at 5 µM [2] was 81% and the viability at 10 µM [3] was 88%. For the same compound, the viability at 10 µM [4] was 54.6%.
For `Nc1nc(Nc2ccccc2SSc2ccccc2Nc2nc(N)nc(-c3ccncc3)n2)nc(-c2ccncc2)n1` [MTF 329, N2,N2′-(disulfanediylbis(2,1-phenylene))bis(6-(pyridin-4-yl)-1,3,5-triazine-2,4-diamine)], the viability at 5 µM [1] was 96.2%, the viability at 5 µM [2] was 69.7% and the viability at 10 µM [3] was 74.2%. For the same compound, the viability at 10 µM [4] was 22.5%.
`Nc1nc(Nc2ccccc2SSc2ccccc2Nc2nc(N)nc(-c3cccc(F)c3)n2)nc(-c2cccc(F)c2)n1` [MTF 320] showed a viability at 5 µM [1] of 18.3%, a viability at 5 µM [2] of 11.5% and a viability at 10 µM [3] of 10.8%. It also gave a viability at 10 µM [4] of 8.5%.
Compound `COc1ccc(C(=N)NC(=N)Nc2nc(-c3ccccc3)cs2)cc1` [MTF 262, 4-methoxy-N—(N-(4-phenylthiazol-2-yl)carbamimidoyl)benzimidamide] has a viability at 5 µM [1] of 61.4%, a viability at 5 µM [2] of 43.7% and a viability at 10 µM [3] of 40.8%. The viability at 10 µM [4] was 27.3%.
In the case of `N=C(NC(=N)c1ccccc1Br)Nc1nc2ccccc2s1` [MTF 250, N—(N-(benzo[d]thiazol-2-yl)carbamimidoyl)-2-bromobenzimidamide], the viability at 5 µM [1] is reported as 25.4%, the viability at 5 µM [2] is reported as 8.9% and the viability at 10 µM [3] is reported as 12%. For the same compound, the viability at 10 µM [4] was 2.4%.
Compound `N=C(NC(=N)c1cccnc1)Nc1nc(-c2cccc([N+](=O)[O-])c2)cs1` [MTF 260, N—(N-(4-(3-nitrophenyl)thiazol-2-yl)carbamimidoyl)nicotinimidamide] has a viability at 5 µM [1] of 57%, a viability at 5 µM [2] of 32% and a viability at 10 µM [3] of 76.7%. It also gave a viability at 10 µM [4] of 78%.
Work on `N=c1nc(C(Cl)(Cl)Cl)nc(Nc2ccc(Cl)cc2O)[nH]1` [MTF 375] yielded a viability at 5 µM [1] of 47.2%, a viability at 5 µM [2] of 29.5% and a viability at 10 µM [3] of 30.9%. For the same compound, the viability at 10 µM [4] was 15.5%.
`N=C(NC(=N)c1ccc2ccccc2c1)Nc1nc2ccccc2s1` [MTF 384, N—(N-(benzo[d]thiazol-2-yl)carbamimidoyl)-2-naphthimidamide] gave a viability at 5 µM [1] of 76.1%, a viability at 5 µM [2] of 119% and a viability at 10 µM [3] of 93.3%. For the same compound, the viability at 10 µM [4] was 72.2%.
